Assay results taken from paper PMC10866072, “Design, synthesis, molecular modelling and biological evaluation of novel 6-amino-5-cyano-2-thiopyrimidine derivatives as potent anticancer agents against leukemia and apoptotic inducers” (Journal of Enzyme Inhibition and Medicinal Chemistry, 2024).

Tests used:
OVCAR-8 = type: cell-based
MDA-MB-435 = type: cell-based
MDA-MB-231/ATCC = type: cell-based
SK-MEL-28 = type: cell-based
Renal cancer cell lines = assay: NCI-60 five-dose, subpanel
Description: A measure of a compound’s selectivity for a given cell line is the ratio created by dividing the full panel mean graph midpoints (MG-MID) concentration by the individual subpanel MG-MID concentrations (obtained as the average sensitivity of all the cell lines in a given subpanel to the test compound).
(§1) Assessment of selectivity of a compound depends on the ratio obtained by dividing the full panel MID ^a by their individual subpanel MID ^b (µM) where MID^a is the average sensitivity of all cell lines towards the test agent (µM).

RPMI-8226 = type: cell-based
[1] = tested on: Non-small cell lung cancer cell lines; assay: NCI-60 five-dose, subpanel
Description: (§2) Furthermore, the average sensitivity of all cell lines to the compound is termed as the full panel mean graph midpoints (MG-MID). The complete panel mean graph midpoints refers to the average sensitivity of all cell lines to the chemical (MG-MID). A measure of a compound’s selectivity for a given cell line is the ratio created by dividing the full panel mean graph midpoints (MG-MID) concentration by the individual subpanel MG-MID concentrations (obtained as the average sensitivity of all the cell lines in a given subpanel to the test compound).
as §1

NCI-H226 = type: cell-based
CNS Cancer cell lines = assay: NCI-60 five-dose, subpanel
Description: as §2, §1

COLO 205 = type: cell-based
BT-549 = type: cell-based
[2] = Homo sapiens, five-dose, read-out: LC50 (the source's name)
[3] = Homo sapiens, one dose 10^-5 M, 48 h
[4] = Homo sapiens, read-out: GI50 Subpanel MID^b

N#Cc1c(N)nc(S)nc1-c1ccc(Cl)cc1Cl [Compound 1c, 4-Amino-6–(2,4-dichlorophenyl)-2-mercaptopyrimidine-5-carbonitrile]
GI50 (OVCAR-8; Homo sapiens, five-dose): 21.8 µM | CC50 (OVCAR-8; [2]): > 100 µM | % growth of cells at 10 µM (OVCAR-8; [3]): 5.74% | TGI (OVCAR-8; five-dose): 74.70 µM | GI50 (MDA-MB-435; Homo sapiens, five-dose): 10.5 µM | CC50 (MDA-MB-435; [2]): > 100 µM | activity at 10 µM (MDA-MB-435; Homo sapiens, one dose 10^-5 M, 48 h, read-out: % growth): 25.3% | TGI (MDA-MB-435; five-dose): 38.00 µM | GI50 (MDA-MB-231/ATCC; Homo sapiens, five-dose): 13.1 µM | LC50 (MDA-MB-231/ATCC; Homo sapiens, five-dose): 58.1 µM | % growth at 10 µM (MDA-MB-231/ATCC; [3]): 51.9% | TGI (MDA-MB-231/ATCC; five-dose): 27.60 µM | GI50 (SK-MEL-28; Homo sapiens, five-dose): 15.2 µM | CC50 (SK-MEL-28; [2]): 60.7 µM | % cell growth at 10 µM (SK-MEL-28; [3]): 57.7% | TGI (SK-MEL-28; five-dose): 30.40 µM | GI50 (Renal cancer cell lines; [4]): 14.2 µM | Selectivity ratio (full panel MID^a / subpanel MID^b, GI50 level) (Renal cancer cell lines; renal cancer): 0.9 | GI50 (RPMI-8226; Homo sapiens, five-dose): 0.6 µM | LC50 (RPMI-8226; Homo sapiens, five-dose): > 100 µM | % growth at 10 µM (RPMI-8226; [3]): 9.51% | TGI (RPMI-8226; five-dose): 27.50 µM | GI50 [1, 4]: 18.1 µM | Selectivity ratio (full panel MID^a / subpanel MID^b, GI50 level) ([1]; non-small cell lung cancer): 0.7 | GI50 (NCI-H226; Homo sapiens, five-dose): 16.5 µM | LC50 (concentration killing 50% of tumour cells) (NCI-H226; Homo sapiens, five-dose): 82 µM | % growth at 10 µM (NCI-H226; [3]): 64.4% | TGI (NCI-H226; five-dose): 36.80 µM | Selectivity ratio (full panel MID^a / subpanel MID^b, GI50 level) (CNS Cancer cell lines; CNS cancer): 1.04 | GI50 (CNS Cancer cell lines; [4]): 12.4 µM | GI50 (COLO 205; Homo sapiens, five-dose): 19 µM | CC50 (COLO 205; [2]): 70 µM | % growth at 10 µM (COLO 205; [3]): 80.5% | TGI (COLO 205; five-dose): 36.50 µM | GI50 (BT-549; Homo sapiens, five-dose): 14.9 µM | CC50 (BT-549; [2]): 62.7 µM | % cell growth at 10 µM (BT-549; [3]): 42.1% | TGI (BT-549; five-dose): 30.50 µM
